These results are taken from PMC4000408, “No clinically significant drug interactions between lenalidomide and P-glycoprotein substrates and inhibitors: results from controlled phase I studies in healthy volunteers” (Cancer Chemotherapy and Pharmacology, 2014).

The nature of data set [1]: Study 1: lenalidomide-digoxin pharmacokinetic interaction, double-blind placebo-controlled crossover in healthy subjects. The following applies: for T max: median (range). How it is done:
Study 1 was designed as a double-blind, placebo-controlled, randomized, 2-period, crossover trial. Subjects were randomized to receive either lenalidomide 10 mg/day for 7 days in Study Period 1 and the matching placebo for 7 days in Study Period 2, or to receive the same two treatments in the reverse order. […] A 10-day washout separated the study periods.
For analysis of lenalidomide in plasma and urine, the assay ranges were 5–1,000 and 100–20,000 ng/mL, respectively, and the details of methods were described previously. […] C [2, 3] H7]-temsirolimus were quantitatively extracted from whole blood sample by protein precipitation extraction.
Non-compartmental pharmacokinetic parameters were estimated from drug concentration–time profiles. Major pharmacokinetic parameters included C max, time to reach C max (T max), terminal-phase half-life (t 1/2), AUC from time zero to the last measurable concentration (AUCt), AUC from time zero to infinity (AUC∞), cumulative urinary excretion as a percentage of administered dose (fe), and renal clearance (CLR).
An analysis of variance (ANOVA) was performed on the natural log-transformed pharmacokinetic parameters to estimate the percentage ratio of geometric means between treatments, and the 90 % confidence interval (CI) for key pharmacokinetic parameters.

A short description of data set [2]: Study 2, Part 2: lenalidomide-temsirolimus pharmacokinetic interaction, open-label crossover in healthy subjects. It is filed as in vivo, human. Particulars: for AUC(0-inf) / AUC(0-t) / Cmax / half-life / CL renal / fe (cumulative urinary excretion as a percentage of administered dose): geometric mean (geometric CV %); for Tmax: median (range); for CL renal: plasma and urine, read-out: CLR (renal clearance); for fe (cumulative urinary excretion as a percentage of administered dose): urine. How it is done: Study 2, Part 2 was designed as an open-label, fixed-sequence, 3-period, crossover trial. In Period 1, subjects received a single oral dose of 25 mg lenalidomide; in Period 2, subjects received a single dose of temsirolimus 25 mg via a 30-min intravenous (IV) infusion; and in Period 3, subjects received both a single 25 mg oral dose of lenalidomide and a single 25 mg IV dose of temsirolimus. Pre-treatment with IV diphenhydramine (25 mg) was administered 30 min prior to start of each temsirolimus infusion. There was a 7–10 day washout between Study Periods 1 and 2, and a minimum 14-day washout between Study Periods 2 and 3.

Details of data set [3]: method as in ref 15 = [15]; PMID 21825263; doi:10.1200/JCO.2010.32.4962; 15. Hofmeister CC Yang X Pichiorri F Chen P Rozewski DM Johnson AJ Lee S Liu Z Garr CL Hade EM Ji J Schaaf LJ Benson DM Jr Kraut EH Hicks WJ Chan KK Chen CS Farag SS Grever MR Byrd JC Phelps MA Phase. Particulars: MM patients, cited from earlier work.
Data set [4] has as its system human P-gp. More on the design: method as in ref 14, 15 = [14]; 14. Kumar GN, Surapaneni S, Lau H, Laskin O, Fox L (2008) Interaction of lenalidomide with human drug transporters in vitro [abstract 381]. ISSX Online Abstracts Supplement 3 (No. 3). Presented at the || [15]; PMID 21825263; doi:10.1200/JCO.2010.32.4962; 15. Hofmeister CC Yang X Pichiorri F Chen P Rozewski DM Johnson AJ Lee S Liu Z Garr CL Hade EM Ji J Schaaf LJ Benson DM Jr Kraut EH Hicks WJ Chan KK Chen CS Farag SS Grever MR Byrd JC Phelps MA Phase. The following applies: monolayers of LLC-PK1 and MDCKII cell lines expressing human P-gp; cited from earlier work.

Data set [5] concerns CYP3A4. Particulars: cited from earlier work.
The test system of data set [6] is P-gp. Particulars: up to a concentration of 300 μM, P-gp expressing LLC-PK1 cell line; cited from earlier work.
On the set-up of data set [7]: method as in PMID 22213235. Particulars: cited from earlier work.
For data set [8] the following is noted: cited from earlier work.
Data set [9] is described as follows: Study 2, Part 1: lenalidomide-quinidine pharmacokinetic interaction, open-label crossover in healthy subjects. The data set is classed as in vivo, human. Particulars: for fe (cumulative urinary excretion as a percentage of administered dose): urine. How it is done:
Study 2, Part 1 was designed as an open-label, fixed-sequence, 2-period, crossover trial. In Period 1, subjects received a single oral dose of 25 mg lenalidomide. […] Study periods were separated by a washout of 7–10 days. In both periods, serial blood samples were collected, and urine samples were pooled over specified intervals for up to 48-h post-lenalidomide dosing to determine plasma and urine lenalidomide concentrations.

Data set [10] can be described thus: Safety evaluation in the phase I studies (AEs, laboratory values, ECG, vital signs). The data set is classed as in vivo, human. Particulars: lenalidomide given with digoxin, quinidine or temsirolimus vs lenalidomide alone or with placebo. How it is done:
Safety was evaluated throughout each study by monitoring AEs, physical examinations, vital signs, clinical laboratory values, and 12-lead electrocardiogram results and was summarized using descriptive statistics.

Data set [11] deals with human P-gp transporters. Particulars: read-out: Ki for inhibiting human P-gp transporters in vitro; cited from earlier work.
[12] abbreviates: human, temsirolimus 25 mg IV + lenalidomide 25 mg (n = 11), whole blood.
Where [13] appears, read: human, temsirolimus 25 mg IV alone (n = 14), whole blood.
The mark [14] stands for this setting: human, oral, lenalidomide 25 mg alone (n = 17), plasma.
The mark [15] stands for this setting: human, lenalidomide 25 mg + temsirolimus 25 mg IV (n = 11), plasma.
Setting [16] is: human, oral, lenalidomide 25 mg alone (n = 14), plasma, geometric mean (geometric CV %).

Where two headings read alike, the source gives them in different places.

As for `C[C@H]1O[C@@H](O[C@H]2[C@@H](O)C[C@H](O[C@H]3[C@@H](O)C[C@H](O[C@H]4CC[C@@]5(C)[C@H](CC[C@@H]6[C@@H]5C[C@@H](O)[C@]5(C)[C@@H](C7=CC(=O)OC7)CC[C@]65O)C4)O[C@@H]3C)O[C@@H]2C)C[C@H](O)[C@@H]1O` [Digoxin], the T max in data set [1] (digoxin 0.5 mg + lenalidomide 10 mg/day (n = 17), plasma) was 1.0 (1–3) h. For the same molecule, in data set [1] (digoxin 0.5 mg alone (with placebo) (n = 17), plasma), the T max is on record as 1.0 (1–3) h. Further, in data set [1] (human, plasma, oral, 0.5 mg), the AUC(0-inf) is 26.3 ng·h/mL, the AUC(0-t) worked out at 19.1 ng·h/mL, the Cmax turned out to be 1.69 ng/mL and the half-life was 32.3 h.

In the case of `CO[C@H]1C[C@@H]2CC[C@@H](C)[C@@](O)(O2)C(=O)C(=O)N2CCCC[C@H]2C(=O)O[C@H]([C@H](C)C[C@@H]2CC[C@@H](OC(=O)C(C)(CO)CO)[C@H](OC)C2)CC(=O)[C@H](C)/C=C(\C)[C@@H](O)[C@@H](OC)C(=O)[C@H](C)C[C@H](C)/C=C/C=C/C=C/1C` [Temsirolimus], the “90 % CIs for the ratio of geometric means, temsirolimus alone vs temsirolimus plus lenalidomide, for C max and AUCt” value in data set [2] (human, in vivo) is “completely contained within the limits l of 80 and 125%”. Besides, in data set [2] (setting [12]), the AUC(0-inf) worked out at 2710 ng·h/mL, the AUC(0-t) came to 2570 ng·h/mL, the Cmax stood at 649 ng/mL and the half-life was 15.2 h. Besides, in data set [2] (setting [12]), the Tmax worked out at 0.47 h. Moreover, in data set [2] (setting [13]), the AUC(0-inf) came out at 2800 ng·h/mL, the AUC(0-t) came to 2670 ng·h/mL, the concentration peaked (Cmax) at 586 ng/mL and the half-life was 15.3 h. In addition, the Tmax in data set [2] (setting [13]) came to 0.47 h. Also, in [3] (temsirolimus 15 mg/day, lenalidomide 15–25 mg/day), the “C max and AUC of temsirolimus with increasing doses of lenalidomide” value is listed as “increase”.

With `Nc1cccc2c1CN(C1CCC(=O)NC1=O)C2=O` (stereo not shown) [Lenalidomide], the Efflux ratio result in data set [4] is listed as “approximately 3”. In addition, the AUC(0-inf) in data set [2] (setting [14]) was determined as 1350 ng·h/mL; in [2] (setting [15]), 1440 ng·h/mL; in data set [1] (human, in vivo, 10 mg) it was 475 ng·h/mL; in data set [9] (setting [16]), 1360 ng·h/mL. For the same molecule, the AUC(0-t) in [2] (setting [14]) was 1280 ng·h/mL; in [2] (setting [15]) it was 1370 ng·h/mL; in [1] (human, in vivo, 10 mg), 396 ng·h/mL; in data set [9] (setting [16]), 1290 ng·h/mL. Besides, the Cmax in data set [2] (setting [14]) stood at 364 ng/mL; in data set [2] (setting [15]), 361 ng/mL; in data set [1] (human, in vivo, 10 mg), 119 ng/mL; in data set [9] (human, oral, lenalidomide 25 mg alone (n = 14), plasma, geometric mean (geometric CV %), read-out: Cmax) it was 367 ng/mL. Also, the half-life in [2] (setting [14]) was 2.81 h; in [2] (setting [15]) it was 2.69 h; in [1] (human, in vivo, 10 mg), 2.4 h; in data set [9] (setting [16]), 2.81 h. Also, the Tmax in data set [2] (setting [14]) amounted to 0.5 h; in [2] (setting [15]) it was 1 h; in [1] (human, in vivo, 10 mg) it was 1 h; in data set [9] (human, oral, lenalidomide 25 mg alone (n = 14), plasma, median (range)), 1 h. Further, the CL renal came out at 251 mL/min in data set [2] (human, oral, lenalidomide 25 mg alone (n = 17)); 229 mL/min in [2] (human, lenalidomide 25 mg + temsirolimus 25 mg IV (n = 11)); 227 mL/min in data set [9] (human, plasma and urine, oral, lenalidomide 25 mg alone (n = 14), geometric mean (geometric CV %), read-out: CLR (renal clearance)). Also, the “fe (cumulative urinary excretion as a percentage of administered dose)” value is reported as 79.6 (8.0) % dose in [2] (lenalidomide 25 mg + temsirolimus 25 mg IV (n = 11)); 81.0 (10.0) % dose in data set [2] (lenalidomide 25 mg alone (n = 17)); 70.2 (6.6) % dose in data set [9] (lenalidomide 25 mg + quinidine (n = 14), geometric mean (geometric CV %)); 74.2 (11.4) % dose in [9] (lenalidomide 25 mg alone (n = 14), geometric mean (geometric CV %)). The “CYP3A4 substrate, inhibitor or inducer status” value in data set [5] is given as “not a substrate, inhibitor, or inducer of CYP3A4”. In addition, the “Inhibition of P-gp-dependent transport of digoxin” value in data set [6] is listed as “did not inhibit”. In addition, the “Lenalidomide AUC with itraconazole relative to other MM patients receiving lenalidomide alone” value in data set [7] (MM patient, lenalidomide 10 mg/day + itraconazole 100 mg/day vs lenalidomide 25 mg/day alone) is 12 fold. For the same molecule, the “Elimination half-life (t 1/2)” value in data set [7] (with itraconazole) was 5.5 h; in [7] (without itraconazole) it was 6.7 h. Besides, the “C max and AUC of lenalidomide with increasing doses of temsirolimus” value in data set [3] (lenalidomide 25 mg/day, temsirolimus 15–20 mg/day) is on record as “increase”. Also, the “Absorption after oral administration” value in [8] is on record as more than 90%. The “Administered dose eliminated by renal excretion of the unchanged drug” value in data set [8] is “Approximately 80%”. In addition, in data set [8] (known high bioavailability), the Bioavailability is given as more than 90%. Further, the “90 % CIs for the ratio of geometric means, lenalidomide alone vs plus an interacting drug, for Cmax and AUC in plasma” value in [1] (human, in vivo) is “completely contained within the limits of 80 and 125%”. In data set [1] (human, in vivo), the “Median time of observed Cmax of lenalidomide” value was 0.5 to 1 h. In data set [9] (interacting drug quinidine or temsirolimus (Study 2)), the “90 % CIs for the ratio of geometric means, lenalidomide alone vs plus an interacting drug, for renal clearance” value was “completely contained within the limits of 80 and 125%”. In addition, the “Time by which urinary excretion of unchanged lenalidomide was nearly complete” value in data set [9] (post-dose, under all treatment conditions (alone, + quinidine, + temsirolimus)) is recorded as not above 12 h. In [10], the “Number of subjects reporting AEs, or number of AEs reported” value was “no apparent increase”.

`C=C[C@H]1C[N@@]2CC[C@H]1C[C@@H]2[C@@H](O)c1ccnc2ccc(OC)cc12` [Quinidine]: in data set [11], the Ki is 900 nM. In addition, the “Estimated mean C max for unbound quinidine” value in data set [9] (assuming 15 % of unbound drug) is “approximately 1 μM”. The molecule further yielded a maximum concentration (Cmax) in [9] (human, oral, 600 mg twice daily, plasma, Day 4, CV % 24.3) of 2350 ng/mL. For the same molecule, the “Mean quinidine trough concentration” value in [9] (plasma, Days 4–5, quinidine sulfate 600 mg twice daily) is recorded as 1,705 ng/mL.

As usually defined, the AUC(0-inf) is total exposure, with the tail of the curve extrapolated. The term AUC(0-t) denotes exposure summed from dosing to a finite time, without extrapolation to infinity. As a reminder, the Cmax is the maximum level reached in the sampled fluid or tissue. The term half-life denotes the time needed for the level to fall by half in the phase considered. As a reminder, the Tmax is the time at which the peak concentration occurs. One may read the Ki as the equilibrium dissociation constant of an inhibitor or competing ligand from its target.
